Results taken from US10239844B2, “Disubstituted triazole analogs” (BioVentures, LLC, priority 2014, dated 2019).

Tests used:
Format in all cases: cell-based, human
[1] = system: KM12; experiment: NCI 60 panel five-dose growth inhibition, Colon Cancer; settings: for GI50: Homo sapiens
[2] = system: ACHN; experiment: NCI 60 panel five-dose growth inhibition, Renal Cancer; settings: for GI50: Homo sapiens
[3] = system: 1-ICT-15; experiment: NCI 60 panel five-dose growth inhibition, Colon Cancer; settings: 1-ICT-15, Colon Cancer; for GI50: Homo sapiens
[4] = system: SF-268; experiment: NCI 60 panel five-dose growth inhibition, CNS Cancer; settings: SF-268, CNS Cancer; for GI50: Homo sapiens
[5] = system: MOLT-4; experiment: NCI 60 panel five-dose growth inhibition, Leukemia; settings: MOLT-4, Leukemia; for GI50: Homo sapiens
[6] = system: HL-60(T13); experiment: NCI 60 panel five-dose growth inhibition, Leukemia; settings: for GI50: Homo sapiens
[7] = system: HCT-116; experiment: NCI 60 panel five-dose growth inhibition, Colon Cancer; settings: HCT-116, Colon Cancer; for GI50: Homo sapiens
[8] = system: U0-31; experiment: NCI 60 panel five-dose growth inhibition, Renal Cancer; settings: U0-31, Renal Cancer; for GI50: Homo sapiens
[9] = system: COLO 205; experiment: NCI 60 panel five-dose growth inhibition, Colon Cancer; settings: COLO 205, Colon Cancer; for GI50: Homo sapiens
[10] = system: SNB-19; experiment: NCI 60 panel five-dose growth inhibition, CNS Cancer; settings: SNB-19, CNS Cancer; for GI50: Homo sapiens
[11] = system: M14; experiment: NCI 60 panel five-dose growth inhibition, Melanoma; settings: for GI50: Homo sapiens
[12] = system: DU-145; experiment: NCI 60 panel five-dose growth inhibition, Prostate Cancer; settings: DU-145, Prostate Cancer; for GI50: Homo sapiens
[13] = system: HCC-2998; experiment: NCI 60 panel five-dose growth inhibition, Colon Cancer; settings: HCC-2998, Colon Cancer; for GI50: Homo sapiens
[14] = system: SK-MEL-2; experiment: NCI 60 panel five-dose growth inhibition, Melanoma; settings: SK-MEL-2, Melanoma; for GI50: Homo sapiens
[15] = system: SK-MEL-28; experiment: NCI 60 panel five-dose growth inhibition, Melanoma; settings: SK-MEL-28, Melanoma
[16] = system: SF-539; experiment: NCI 60 panel five-dose growth inhibition, CNS Cancer; settings: SF-539, CNS Cancer; for GI50: Homo sapiens
[17] = system: OVCAR-4; experiment: NCI 60 panel five-dose growth inhibition, Ovarian Cancer; settings: OVCAR-4, Ovarian Cancer
[18] = system: OVCA R-3; experiment: as above; settings: OVCA R-3, Ovarian Cancer; for GI50: Homo sapiens, OVCAR-3
[19] = system: U251; experiment: NCI 60 panel five-dose growth inhibition, CNS Cancer; settings: for GI50: Homo sapiens, U-251
[20] = system: PC-3; experiment: NCI 60 panel five-dose growth inhibition, Prostate Cancer; settings: PC-3, Prostate Cancer; for GI50: Homo sapiens
[21] = system: CAKI-1; experiment: NCI 60 panel five-dose growth inhibition, Renal Cancer; settings: CAKI-1, Renal Cancer; for GI50: Homo sapiens
[22] = system: SF-295; experiment: NCI 60 panel five-dose growth inhibition, CNS Cancer; settings: SF-295, CNS Cancer; for GI50: Homo sapiens
[23] = system: MCF7; experiment: NCI 60 panel five-dose growth inhibition, Breast Cancer; settings: for GI50: Homo sapiens
[24] = system: MDA-MB-468; experiment: as above; settings: MDA-MB-468, Breast Cancer; for GI50: Homo sapiens
[25] = system: HOP-92; experiment: NCI 60 panel five-dose growth inhibition, Non-Small Cell Lung Cancer; settings: HOP-92, Non-Small Cell Lung Cancer; for GI50: Homo sapiens
[26] = system: A549/ATCC; experiment: as above; settings: for GI50: Homo sapiens
[27] = system: IGROV1; experiment: NCI 60 panel five-dose growth inhibition, Ovarian Cancer; settings: for GI50: Homo sapiens, IGROV-1
[28] = system: CCRF-CEM; experiment: NCI 60 panel five-dose growth inhibition, Leukemia; settings: for GI50: Homo sapiens
[29] = system: SNB-75; experiment: NCI 60 panel five-dose growth inhibition, CNS Cancer; settings: SNB-75, CNS Cancer; for GI50: Homo sapiens
[30] = system: MDA-MB-435; experiment: NCI 60 panel five-dose growth inhibition, Melanoma; settings: for GI50: Homo sapiens
[31] = system: MDA-MB-231/ATCC; experiment: NCI 60 panel five-dose growth inhibition, Breast Cancer; settings: for GI50: Homo sapiens
[32] = system: SW-620; experiment: NCI 60 panel five-dose growth inhibition, Colon Cancer; settings: SW-620, Colon Cancer; for GI50: Homo sapiens
[33] = system: 786-0; experiment: NCI 60 panel five-dose growth inhibition, Renal Cancer; settings: 786-0, Renal Cancer; for GI50: Homo sapiens
[34] = system: HT29; experiment: NCI 60 panel five-dose growth inhibition, Colon Cancer; settings: for GI50: Homo sapiens, HT-29
[35] = system: SK-OV-3; experiment: NCI 60 panel five-dose growth inhibition, Ovarian Cancer; settings: SK-OV-3, Ovarian Cancer; for GI50: Homo sapiens
[36] = system: RPMI-8226; experiment: NCI 60 panel five-dose growth inhibition, Leukemia; settings: RPMI-8226, Leukemia; for GI50: Homo sapiens

For `COc1cc(-c2n[nH]nc2-c2cc(OC)c(OC)c(OC)c2)cc(OC)c1OC` [Example 3, 4,5-bis(3,4,5-trimethoxyphenyl)-2H-1,2,3-triazole], the TGI [1] was over 100 µM, the GI50 [1] was 35.3 nM and the TGI [2] was over 100 µM. It also gave a GI50 [2] of 81.3 nM, a TGI [3] of over 100 µM and a GI50 [3] of 37.3 nM. It also gave a GI50 [4] of 503 nM, a TGI [4] of over 100 µM and a GI50 [5] of 68.2 nM. For the same compound, the TGI [5] was over 100 µM, the TGI [6] was 5.74 µM and the GI50 [6] was 30 nM. It also gave a GI50 [7] of 40.2 nM, a GI50 [8] of 92.3 nM and a TGI [8] of over 100 µM. The TGI [9] was 1.16 µM, the GI50 [9] was 228 nM and the GI50 [10] was 52.5 nM. The TGI [10] was over 100 µM, the GI50 [11] was 21.5 nM and the GI50 [12] was 26.6 nM. For the same compound, the TGI [13] was over 100 µM, the GI50 [13] was 230 nM and the GI50 [14] was 26.9 nM. The TGI [14] was 4.24 µM, the GI50 ([15]; Homo sapiens) was over 1000 nM and the TGI [15] was 6.33 µM. For the same compound, the GI50 [16] was 20 nM, the TGI [16] was 0.05 µM and the GI50 ([17]; Homo sapiens) was 77.4 nM. The TGI [17] was over 100 µM, the GI50 [18] was 10.8 nM and the TGI [18] was 0.04 µM. The TGI [19] was 46.9 µM, the GI50 [19] was 37.1 nM and the GI50 [20] was 45.8 nM. The TGI [20] was over 100 µM, the TGI [21] was over 100 µM and the GI50 [21] was 42.6 nM. The GI50 [22] was 14.4 nM, the TGI [22] was over 100 µM and the TGI [23] was over 100 µM. For the same compound, the GI50 [23] was 26.9 nM, the GI50 [24] was 34.6 nM and the TGI [24] was 26.0 µM. For the same compound, the TGI [25] was 11.3 µM, the GI50 [25] was 98.9 nM and the TGI [26] was over 100 µM. The GI50 [26] was 54.1 nM, the TGI [27] was over 100 µM and the GI50 [27] was 64.8 nM. It also gave a TGI [28] of over 100 µM, a GI50 [28] of 37.3 nM and a GI50 [29] of 15.7 nM. The GI50 ([30]; MDA-MB-435, Melanoma) was under 10 nM, the TGI [31] was over 100 µM and the GI50 [31] was 94.7 nM. For the same compound, the GI50 [32] was 40.6 nM, the TGI [32] was over 100 µM and the TGI [33] was over 100 µM. For the same compound, the GI50 [33] was 42.8 nM, the TGI [34] was 14.5 µM and the GI50 [34] was 214 nM. It also gave a GI50 [35] of 75 nM, a TGI [35] of 97.7 µM and a GI50 [36] of 36.5 nM. It also gave a TGI [36] of 87.6 µM.

With `COc1cc(-c2n[nH]nc2-c2ccc3ccccc3n2)cc(OC)c1OC` [Example 4, 2-(5-(3,4,5-trimethoxyphenyl)-2H-1,2,3-triazol-4-yl)quinoline] the TGI [1] was 23.8 µM, the GI50 [1] was 29.8 nM and the TGI [2] was over 100 µM. It also gave a GI50 [2] of 145 nM, a TGI [3] of 5.13 µM and a GI50 [3] of under 10 nM. The GI50 [4] was 177 nM, the TGI [4] was over 100 µM and the GI50 [5] was 48.2 nM. For the same compound, the TGI [5] was 20.0 µM, the GI50 [6] was 22.7 nM and the TGI [7] was 1.47 µM. It also gave a GI50 [7] of under 10 nM, a GI50 [8] of 20 nM and a TGI [8] of over 100 µM. For the same compound, the TGI [9] was 0.64 µM, the GI50 [9] was 149 nM and the GI50 [10] was 36.9 nM. For the same compound, the TGI [10] was over 100 µM, the TGI [11] was over 100 µM and the GI50 [11] was under 10 nM. The TGI [12] was over 100 µM, the GI50 [12] was 44.8 nM and the TGI [13] was 11.4 µM. The GI50 [13] was 45.9 nM, the GI50 [14] was 55.5 nM and the TGI [14] was over 100 µM. For the same compound, the GI50 [16] was 13.8 nM, the TGI [16] was 0.04 µM and the TGI [17] was over 100 µM. For the same compound, the GI50 [18] was 24.4 nM, the TGI [18] was over 100 µM and the TGI [19] was over 100 µM. It also gave a GI50 [19] of 37.9 nM, a GI50 [20] of 41.5 nM and a TGI [20] of over 100 µM. It also gave a TGI [21] of over 100 µM, a GI50 [21] of 50.2 nM and a GI50 [22] of 10.8 nM. For the same compound, the TGI [22] was 0.15 µM, the TGI [23] was over 100 µM and the GI50 [23] was 24.5 nM. For the same compound, the GI50 [24] was 23.3 nM, the TGI [24] was 0.08 µM and the TGI [25] was 2.67 µM. For the same compound, the GI50 [25] was under 10 nM, the TGI [26] was over 100 µM and the GI50 [26] was 37.4 nM. It also gave a TGI [27] of over 100 µM, a GI50 [27] of 50.9 nM and a TGI [28] of 21.8 µM. It also gave a GI50 [28] of 31.9 nM, a GI50 [29] of 14.2 nM and a TGI [29] of over 100 µM. The GI50 ([30]; MDA-MB-435, Melanoma) was under 10 nM, the TGI ([30]; MDA-MB-435, Melanoma) was 0.01 µM and the “sensitivity to the growth inhibitory effects” value ([30]; MDA-MB-435, in words) was “sensitive”. The TGI [31] was over 100 µM, the GI50 [31] was 46 nM and the GI50 [32] was 29.5 nM. The TGI [32] was over 100 µM, the TGI [33] was over 100 µM and the GI50 [33] was 15.3 nM. For the same compound, the TGI [34] was 20.5 µM, the GI50 [34] was 47.6 nM and the GI50 [35] was 45.8 nM. For the same compound, the TGI [35] was over 100 µM, the GI50 [36] was 36.8 nM and the TGI [36] was 21.1 µM.
